Data on 23 compounds can be found in patent US10144746B2 (GLOBAL BLOOD THERAPEUTICS, INC., priority 2015, dated 2018).

The structures appear in SMILES notation.

The target in one assay is Human plasma kallikrein (Homo sapiens (Human), UniProt P03952). The assay can be described thus: In vitro plasma kallikrein inhibition assay (chromogenic substrate D-Pro-Phe-Arg-pNa, absorbance at 405 nm, IC50 determination). It counts as biochemical.
Human plasma kallikrein, sequence (P03952 391-638): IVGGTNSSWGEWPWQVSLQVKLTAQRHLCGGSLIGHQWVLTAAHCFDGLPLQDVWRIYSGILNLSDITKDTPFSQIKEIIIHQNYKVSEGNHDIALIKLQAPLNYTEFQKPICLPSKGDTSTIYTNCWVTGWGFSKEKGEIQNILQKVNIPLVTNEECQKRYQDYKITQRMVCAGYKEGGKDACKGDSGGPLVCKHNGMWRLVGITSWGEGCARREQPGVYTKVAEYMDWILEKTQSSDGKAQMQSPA
Human plasma kallikrein, sequence (P03952 20-390 partner): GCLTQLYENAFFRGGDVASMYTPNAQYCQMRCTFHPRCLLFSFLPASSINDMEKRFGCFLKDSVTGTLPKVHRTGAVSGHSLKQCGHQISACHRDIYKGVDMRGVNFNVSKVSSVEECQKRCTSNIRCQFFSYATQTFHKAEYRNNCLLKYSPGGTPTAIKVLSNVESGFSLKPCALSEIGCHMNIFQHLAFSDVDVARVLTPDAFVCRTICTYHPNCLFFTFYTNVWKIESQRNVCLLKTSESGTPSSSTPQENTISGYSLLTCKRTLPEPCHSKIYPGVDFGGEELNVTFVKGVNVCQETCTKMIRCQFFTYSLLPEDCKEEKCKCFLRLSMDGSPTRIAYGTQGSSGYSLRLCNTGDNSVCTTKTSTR
Details: not given
As for `CCc1cc2c(cc1-c1ccc(F)cc1F)C1OC2c2ccc(C(=O)NCc3c(C)cc(N)nc3C)cc21` (racemic) [Example 321, (±)-N-[(6-amino-2,4-dimethyl-pyridin-3-yl)methyl]-12-(2,4-difluorophenyl)-11-ethyl-15-oxatetracyclo[6.6.1.0^2,^7.0^9,1^4] pentadeca-2,4,6,9(14),10,12-hexaene-4-carboxamide and (±)-N-[(6-amino-2,4-dimethylpyridin-3-yl)methyl]-11-(2,4-difluorophenyl)-12-ethyl-15-oxatetracyclo [6.6.1.0^2,^7.0^9,1^4]pentadeca-2,4,6,9(14),10,12-hexaene-4-carboxamide], the “KLKB1 pIC50” value is 8.09.
Regarding `Cc1cc(N)nc(C)c1CNC(=O)c1ccc2c(c1)C1OC2(C)c2ccc(-c3ccc(F)cc3)cc21` (racemic) [Example 334, (±)-N-[(6-amino-2,4-dimethyl-pyridin-3-yl)methyl]-12-(4-fluorophenyl)-8-methyl-15-oxatetracyclo[6.6.1.0^2,^7.0^9,1^4] pentadeca-2,4,6,9,11,13-hexaene-4-carboxamide (±)-N-[(6-amino-2,4-dimethylpyridin-3-yl)methyl]-11-(4-fluorophenyl)-8-methyl-15-oxatetracyclo[6.6.1.0^2,^7.0^9,1^4] pentadeca-2,4,6,9,11,13-hexaene-4-carboxamide], the “KLKB1 pIC50” value turned out to be 5.6.

Staying with this assay, now noted: read-out: KLKB1 pIC50 (converted).
`Cc1cc(N)nc(C)c1CNC(=O)c1ccc2c(c1)C1OC2c2ccc(-c3cc(F)c(F)cc3F)cc21` (racemic) [Example 169, (±)-N-[(6-amino-2,4-dimethylpyridin-3-yl)-methyl]-12-(2,4,5-trifluorophenyl)-15-oxatetra-cyclo [6.6.1.0^2,^7.0^9,1^4]pentadeca-2,4,6,9,11,13-hexaene-4-carboxamide]: the IC50 was 34.7 nM.
For the compound `CCCc1cc(N)nc(C)c1CNC(=O)c1ccc2c(c1)C1OC2c2ccc(-c3ccc(F)cc3F)cc21` (racemic) [Example 172, (±)-N-[(6-amino-2-methyl-4-propylpyridin-3-yl)methyl]-12 (2,4-difluorophenyl)-15-oxatetracyclo[6.6.1.0^2,^7.0^9,1^4] pentadeca-2,4,6,9,11,13-hexaene-4-carboxamide], the IC50 is 10 nM.
Consider `Cc1nc(N)cc(C(C)C)c1CNC(=O)c1ccc2c(c1)C1OC2c2ccc(-c3ccc(F)cc3F)cc21` (racemic) [Example 173, (±)-N-{[6-amino-2-methyl-4-(propan-2-yl)pyridin-3-yl]methyl}-12-(2,4-difluorophenyl)-15-oxatetra-cyclo[6.6.1.0^2,^7.0^9,1^4]pentadeca-2,4,6,9,11,13-hexaene-4-carboxamide], for which the IC50 is 3.02 nM.
Regarding `Cc1nc(N)cc(C2CC2)c1CNC(=O)c1ccc2c(c1)C1OC2c2ccc(-c3ccc(F)cc3F)cc21` (racemic) [Example 180, (±)-N-[(6-amino-4-cyclopropyl-2-methylpyridin-3-yl)methyl]-12-(2,4-difluorophenyl)-15-oxatetracyclo[6.6.1.0^2,^7.0^9,1^4] pentadeca-2,4,6,9,11,13-hexaene-4-carboxamide], the IC50 was 11 nM.
As to `Cc1cc(N)nc(C)c1CNC(=O)c1ccc2c(c1)C1OC2c2ccc(C(=O)c3ccccc3)cc21` (racemic) [Example 188, (±)-N-[(6-amino-2,4-dimethylpyridin-3-yl)methyl]-12-benzoyl-15-oxatetracyclo-[6.6.1.0^2,^7.0^9,1^4]pentadeca-2,4,6,9,11,13-hexaene-4-carboxamide], the IC50 is 10 nM.
For `N=C(N)c1ccc(CNC(=O)c2ccc3c(c2)C2OC3c3ccc(-c4ccccc4)cc32)cc1` (racemic) [Example 189, (±)-N-[(4-carbamimidoylphenyl)methyl]-12-phenyl-15-oxatetracyclo[6.6.1.0^2,^7.0^9,1^4]-pentadeca-2,4,6,9,11,13-hexaene-4-carboxamide], the IC50 was 4.57 nM.
Regarding `CN(C)C(=NC(=N)c1ccc(CNC(=O)c2ccc3c(c2)C2OC3c3ccc(-c4ccccc4)cc32)cc1)N(C)C` (racemic) [Example 190, (±)-N-{[4-({[bis(dimethylamino)methylidene]-amino}methanimidoyl)phenyl]methyl}-12-phenyl-15-oxatetracyclo[6.6.1.0^2,^7.0^9,1^4] pentadeca-2,4,6,9,11,13-hexaene-4-carboxamide], the IC50 was 129 nM.
Consider `N/C(=N\O)c1ccc(CNC(=O)c2ccc3c(c2)C2OC3c3ccc(-c4ccc(F)cc4F)cc32)cc1F` (racemic) [Example 197, (±)-12-(2,4-difluorophenyl)-N-({3-fluoro-4-[N′-hydroxycarbamimidoyl]phenyl}methyl)-15-oxatetracyclo[6.6.1.0^2,^7.0^9,1^4] pentadeca-2,4,6,9,11,13-hexaene-4-carboxamide], for which the IC50 was 100000 nM.
Still for that read-out and setting: the figure for `N=C(N)c1ccc(CNC(=O)c2ccc3c(c2)C2OC3c3ccc(-c4ccc(F)cc4F)cc32)cc1F` (racemic) [Example 198, (±)-N-[(4-carbamimidoyl-3-fluorophenyl)methyl]-12-(2,4-difluorophenyl)-15-oxatetracyclo-[6.6.1.0^2,^7.0^9,1^4]pentadeca-2,4,6,9,11,13-hexaene-4-carboxamide] is 20.9 nM; for `CC(=O)N1C2c3ccc(C(=O)NCc4c(C)cc(N)nc4C)cc3C1c1cc(-c3ccc(F)cc3F)ccc12` (racemic) [Example 209, (±)-15-acetyl-N-[(6-amino-2,4-dimethylpyridin-3-yl)methyl]-12-(2,4-difluorophenyl)-15-azatetracyclo[6.6.1.0^2,^7.0^9,1^4] pentadeca-2,4,6,9,11,13-hexaene-4-carboxamide and (±)-15-acetyl-N-[(6-amino-2,4-dimethylpyridin-3-yl)methyl]-11-(2,4-difluorophenyl)-15-azatetracyclo[6.6.1.0^2,^7.0^9,1^4] pentadeca-2,4,6,9,11,13-hexaene-4-carboxamide] it is 3470 nM; for `CCc1cc2c(cc1CC)C1OC2c2ccc(C(=O)NCc3c(C)cc(N)nc3C)cc21` (racemic) [Example 303, (±)-N-[(6-amino-2,4-dimethyl-pyridin-3-yl)methyl]-11,12-diethyl-15-oxatetracyclo [6.6.1.0^2,^7.0^9,1^4]pentadeca-2,4,6,9(14),10,12-hexaene-4-carboxamide] it is 209 nM.
For `Cc1cc2c(cc1C)C1OC2c2ccc(C(=O)NCc3c(C)cc(N)nc3C)cc21` (racemic) [Example 308, (±)-N-[(6-amino-2,4-dimethyl-pyridin-3-yl)methyl]-11,12-dimethyl-15-oxatetracyclo [6.6.1.0^2,^7.0^9,1^4]pentadeca-2,4,6,9(14),10,12-hexaene-4-carboxamide], the IC50 is 224 nM.
As to `Cc1cc(N)nc(C)c1CNC(=O)c1ccc2c(c1)C1OC2c2cc(C3CC3)c(C3CC3)cc21` (racemic) [Example 311, (±)-N-[(6-amino-2,4-dimethyl-pyridin-3-yl)-methyl]-11,12-dicyclopropyl-15-oxatetracyclo [6.6.1.0^2,^7.0^9,1^4]pentadeca-2,4,6,9,11,13-hexaene-4-carboxamide], the IC50 was 32.4 nM.
The same measure, in the same setting: then `Cc1cc(N)nc(C)c1CNC(=O)c1ccc2c(c1)C1OC2c2cc(-c3ccccc3)c(-c3ccccc3)cc21` (racemic) [Example 314, (±)-N-[(6-amino-2,4-dimethyl-pyridin-3-yl)-methyl]-11,12-diphenyl-15-oxatetracyclo-[6.6.1.0^2,^7.0^9,1^4]pentadeca-2,4,6,9,11,13-hexaene-4-carboxamide], with 871 nM.
The same measure, in the same setting: then `CCc1cc2c(cc1CC)C1OC2c2ccc(C(=O)NCc3ccc(C(=N)N)cc3)cc21` (racemic) [Example 315, (±)-N-[(4-carbamimidoylphenyl)methyl]-11,12-diethyl-15-oxatetracyclo[6.6.1.0^2,^7.0^9,1^4]-pentadeca-2,4,6,9(14),10,12-hexaene-4-carboxamide], with 1.82 nM; and `N=C(N)c1ccc(CNC(=O)c2ccc3c(c2)C2OC3c3cc(C4CC4)c(C4CC4)cc32)cc1` (racemic) [Example 316, (±)-N-[(4-carbamimidoyl-phenyl)methyl]-11,12-dicyclopropyl-15-oxatetracyclo [6.6.1.0^2,^7.0^9,1^4]-pentadeca-2,4,6,9,11,13-hexaene-4-carboxamide], with 4.9 nM; and `Cc1cc2c(cc1C)C1OC2c2ccc(C(=O)NCc3ccc(C(=N)N)cc3)cc21` (racemic) [Example 317, (±)-N-[(4-carbamimidoylphenyl)methyl]-11,12-dimethyl-15-oxatetracyclo[6.6.1.0^2,^7.0^9,1^4]-pentadeca-2,4,6,9(14),10,12-hexaene-4-carboxamide], with 28.8 nM.
As for `Cc1cc(N)nc(C)c1CNC(=O)c1ccc2c(c1)C1OC2c2cc3c(cc21)C(=O)N(C)C3=O` (racemic) [Example 318, (±)-N-[(6-amino-2,4-dimethyl-pyridin-3-yl)methyl]-6-methyl-5,7-dioxo-18-oxa-6-azapentacyclo [9.6.1.0^2,1^0.0^4,^8.0^12,1^4]octadeca-2(10),3,8,12,14,16-hexaene-14-carboxamide], the IC50 was 17.4 nM.
Same read-out and setting: then `COC(=O)c1cc2c(cc1C(=O)OC)C1OC2c2ccc(C(=O)NCc3c(C)cc(N)nc3C)cc21` (racemic) [Example 319, (±)-4,5-dimethyl 11-{[(6-amino-2,4-dimethyl-pyridin-3-yl)methyl]carbamoyl}-15-oxatetracyclo[6.6.1.0^2,^7.0^9,1^4] pentadeca-2(7),3,5,9,11,13-hexaene-4,5-dicarboxylate], with 2450 nM; and `Cc1cc(N)nc(C)c1CNC(=O)c1ccc2c(c1)C1OC2c2cc3c(O)nnc(O)c3cc21` (racemic) [Example 320, (±)-N-[(6-amino-2,4-dimethyl-pyridin-3-yl)methyl]-5,8-dihydroxy-19-oxa-6,7-diazapentacyclo [10.6.1.0^2,^11.0^4,^9.0^13,1^8] nonadeca-2(11),3,5,7,9,13,15,17-octaene-15-carboxamide], with 10200 nM; and `Cc1cc(N)nc(C)c1CNC(=O)c1ccc2c(c1)C1OC2c2cc(C#N)c(C#N)cc21` (racemic) [Example 326, (±)-N-((6-amino-2,4-dimethylpyridin-3-yl)methyl]-11,12-dicyano-15-oxatetracyclo-[6.6.1.0^2,^7.0^9,1^4]pentadeca-2,4,6,9,11,13-hexaene-4-carboxamide], with 851 nM.
